Series [1] is described as follows: Cmin in febrile neutropenic patient with GFR of <40 ml/min at 2 g administered as 30 mins infusion every 8 hrs measured after 4 days by HPLC analysis. Format: ADME, organism-based. To be noted: human, in vivo, iv, read-out: Cmin.
Series [2] is described as follows: Cmin in febrile neutropenic patient with neurological disorder at 2 g administered as 30 mins infusion every 8 hrs measured after 4 days by HPLC analysis. Type of series: ADME, organism-based. The settings on record: human, in vivo, iv, read-out: Cmin.
The test system of series [3] is Homo sapiens. Put plainly: Neurotoxicity in febrile neutropenic patient assessed as myoclonia at 2 g administered as 30 mins infusion every 8 hrs. Type of series: toxicity, organism-based. The settings on record: in vivo, iv.
For series [4], the system named is Homo sapiens. Put plainly: Neurotoxicity in febrile neutropenic patient assessed as confusion at 2 g administered as 30 mins infusion every 8 hrs. Type of series: toxicity, organism-based. To be noted: in vivo, iv.
Series [5] has as its system Homo sapiens. Put plainly: Neurotoxicity in febrile neutropenic patient assessed as hallucinations at 2 g administered as 30 mins infusion every 8 hrs. The settings on record: in vivo, iv. Format: toxicity, organism-based.

In ChEMBL document CHEMBL1687769, “High cefepime plasma concentrations and neurological toxicity in febrile neutropenic patients with mild impairment of renal function” (Antimicrob Agents Chemother, 2010) one finds concentration and Activity data, which are given here for one molecule.

On to `CO/N=C(\C(=O)N[C@@H]1C(=O)N2C(C(=O)[O-])=C(C[N+]3(C)CCCC3)CS[C@H]12)c1csc(N)n1` [CEFEPIME], for which the figures for the concentration at 4 days in series [1] and in series [2] were 11400 ng/mL and 28000 ng/mL, respectively. The Activity entry in the series on Homo sapiens [3], with Homo sapiens [4] and in the series with Homo sapiens [5] was “Toxic” throughout.
